Patent US11884647B2, “Compounds and methods for targeting pathogenic blood vessels” (THE REGENTS OF THE UNIVERSITY OF CALIFORNIA, priority 2019, dated 2024)

How the values were obtained:
[1] = system: tumor endothelial cells (CT26.CL25 colon cancer tumor); test: Colon CT26 ex vivo model of tumor angiogenesis; format: cell-based; conditions: Mus musculus, CT26, 48 h, read-out: Cell death
Experimental: This example describes a procedure to prepare a primary tumor angiogenesis model for assessing the efficacy of anti-cancer candidate agents.
1. The day before the experiment, spray all necessary tools with 70% ethanol and sterilize them under UV light overnight, including blade, dissecting and micro-dissecting scissors and […]. Place 24-well dishes at 4° C. to pre-chill plates and thaw Matrigel 24 hours before tumor dissection.
2. Spray 70% ethanol on working bench. Prepare two sterile petri dishes with 10 mL sterile PBS. Steps 3 and 4 are for mouse tumor models. For fresh human tumor, directly go to step 5.
3. Euthanize the tumor-bearing mice. Spray 70% ethanol on the mouse and remove the tumor using sterilized dissecting tools (avoid the fur). Rinse the tumor in petri dish with sterile PBS to remove ethanol and fur. Transfer the tumor to a new petri dish with PBS for dissection. Place the dish on ice.
4. Using pre-chilled sterile pipet tips to seed regular Matrigel in 24 well plates on ice. Matrigel (30 μL) is dropped in the middle of each well without touching the edge of the well (avoid introducing bubbles if possible).
5. Cut the tumor in halves using the sterile blade. Identify and isolate healthy tumor tissue that is not necrotic and is within the tumor capsule. Cut the healthy tumor tissue into small pieces. For instance, a suitable size for the tumor tissue is 0.5 mm (H)×0.5 mm (L)×0.3 mm (D) with a total volume of 0.075 mm^3.
6. Gently transfer and embed each tumor piece in the Matrigel drop in the 24-well plate. Place the embedded piece in the bottom and middle of each Matrigel drop. Keep the plate on ice all the time.
7. After seeding the tumor pieces, plates are incubated in a 37° C. cell culture incubator without medium for 10 minutes in order for the Matrigel to solidify.
8. Endothelial Growth Medium (0.5 mL) is added to each well and incubated at 37° C. with 5% CO2. Wait until the new endothelial cells have grown out of the tumor or are larger than 3 mm in diameter until treatment. This usually takes 4 days for the LL2 Lewis lung cancer model and 7 days for the CT26 colon cancer model. For human tumor models, the growth time is typically 2-3 weeks, depending on the tumor type. Media is changed every 4 days during prolonged culture. Typically, when the tumor tissue grows to 2 mm in diameter, it is good for drug testing. A size of about 3 mm in diameter can make visualization easier.
9. When the assay is ready to be analyzed for cell death (e.g., 48 hours after drug addition), prepare the dye mixture by mixing 6 μL of green dye to stain live cells (5 mg/mL Fluorescein diacetate or FDA in DMSO) with 30 μL of red dye (2.5 mg/mL Propidium iodide or PI in PBS) to stain dead cells in an Eppendorf tube. The FDA dye needs to be stored frozen in a −20° C. freezer because it has a labile ester bond.
10. Add 1 μL of the dye mixture to each well of the 24-well dish. It is usually performed one 24-well dish at a time given the amount of time needed to take pictures (the green dye is not as stable in the cells in the long term).
11. Gently rock the dish a few times to mix the dye with the media in the wells and incubate the dish at 37° C. for 10 min (too long incubation can make the green signal too intense).
12. Wash each well with 0.5 mL of sterile PBS and then add 0.5 mL of phenol red free SFM to each well. Alternatively 0.5 mL of regular Endothelial Cell Growth Media can be added to each well if this well needs to be continuously maintained after the experiment.
13. Look through all wells on an inverted microscope using the 2× objective lens to observe morphological changes.
14. Taking pictures in the red and green channels would allow not only the recording of the result but also more accurate quantitation of the result. To take pictures for all the wells, first pick a well that has robust red and green signals. […]

[2] = system: tumor endothelial cells (LL/2 lung cancer tumor); test: Lung LL2 ex vivo model of tumor angiogenesis; format: cell-based, mouse; conditions: Mus musculus, Endothelial cell, 48 h, read-out: Cell death
Outline: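 Read-out is live/dead fluorescence imaging (fluorescein diacetate green, propidium iodide red, 10 min at 37° C) at 2×, taken e.g. 48 h after drug addition. Fragments of mouse LL2 tumor are cultured in Matrigel with endothelial growth medium, usually 4 days, until new endothelial cells grow out, then treated.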

SMILES | cytotoxicity at 40 µM [1] [%] | cytotoxicity at 20 µM [2] [%]
CN1CCCN(c2c(S(=O)(=O)c3ccc([N+](=O)[O-])cc3)cnc3ccc(OC(F)(F)F)cc23)CC1 [compound 60, 4-(4-methyl-1,4-diazepan-1-yl)-3-((4-nitrophenyl)sulfonyl)-6-(trifluoromethoxy)quinoline] | 5 | –
CCCCOc1ccc2ncc(S(=O)(=O)c3ccc(OC)c(OC)c3)c(N(CC)CC)c2c1 [compound 123, 6-butoxy-3-((3,4-dimethoxyphenyl)sulfonyl)-N,N-diethylquinolin-4-amine] | 20 | –
CCCCN(CCCC)c1c(S(=O)(=O)c2ccc(OC)c(OC)c2)cnc2ccc(SC)cc12 [compound 124, N,N-dibutyl-3-((3,4-dimethoxyphenyl)sulfonyl)-6-(methylthio)quinolin-4-amine] | 20 | –
CCOC(=O)c1ccc2ncc(S(=O)(=O)c3ccc(CC)cc3)c(N3CCC(O)(c4ccc(CC)cc4)CC3)c2c1 [compound 128, ethyl 4-(4-(4-ethylphenyl)-4-hydroxypiperidin-1-yl)-3-((4-ethylphenyl)sulfonyl)quinoline-6-carboxylate] | 10 | –
CCc1ccc(C2(O)CCN(c3c(S(=O)(=O)c4ccc(OC)cc4)cnc4ccc(OC(F)(F)F)cc34)CC2)cc1 [compound 129, 4-(4-ethylphenyl)-1-(3-((4-methoxyphenyl)sulfonyl)-6-(trifluoromethoxy)quinolin-4-yl)piperidin-4-ol] | 0 | –
CCOC(=O)c1ccc2ncc(S(=O)(=O)c3ccc(CC)cc3)c(N3CCC(N4CCC(O)CC4)CC3)c2c1 [compound 130, ethyl 3-((4-ethylphenyl)sulfonyl)-4-(4-hydroxy-[1,4′-bipiperidin]-1′-yl)quinoline-6-carboxylate] | 40 | –
CCOC(=O)c1ccc2ncc(S(=O)(=O)c3ccc(CC)cc3)c(N3CCCN(CCN(CC)CC)CC3)c2c1 [compound 131, ethyl 4-(4-(2-(diethylamino)ethyl)-1,4-diazepan-1-yl)-3-((4-ethylphenyl)sulfonyl)quinoline-6-carboxylate] | 50 | –
CCOC(=O)c1ccc2ncc(S(=O)(=O)c3ccc(CC)cc3)c(N3CCC(OCCN(CC)CC)CC3)c2c1 [compound 132, ethyl 4-(4-(2-(diethylamino)ethoxy)piperidin-1-yl)-3-((4-ethylphenyl)sulfonyl)quinoline-6-carboxylate] | 40 | –
CCOC(=O)c1ccc2ncc(S(=O)(=O)c3ccc(CC)cc3)c(N3CCCC(O)C3)c2c1 (stereo not drawn) [compound 135, ethyl 3-((4-ethylphenyl)sulfonyl)-4-(3-hydroxypiperidin-1-yl)quinoline-6-carboxylate] | 30 | –
CCOC(=O)c1ccc2ncc(S(=O)(=O)c3ccc(OC)cc3)c(N3CCC(N4CCCCC4)CC3)c2c1 [compound 136, ethyl 4-([1,4′-bipiperidin]-1′-yl)-3-((4-methoxyphenyl)sulfonyl)quinoline-6-carboxylate] | 30 | –
CCOC(=O)c1ccc2ncc(S(=O)(=O)c3ccc(OC)cc3)c(N3CCCC(O)C3)c2c1 (stereo not drawn) [compound 137, ethyl 4-(3-hydroxypiperidin-1-yl)-3-((4-methoxyphenyl)sulfonyl)quinoline-6-carboxylate] | 40 | –
CCOC(=O)c1ccc2ncc(S(=O)(=O)c3ccc(OC)cc3)c(N3CCC(N4CCC(O)CC4)CC3)c2c1 [compound 138, ethyl 4-(4-hydroxy-[1,4′-bipiperidin]-1′-yl)-3-((4-methoxyphenyl)sulfonyl)quinoline-6-carboxylate] | 20 | –
CCOC(=O)c1ccc2ncc(S(=O)(=O)c3ccc(OC)cc3)c(N3CCCN(CCN(CC)CC)CC3)c2c1 [compound 139, ethyl 4-(4-(2-(diethylamino)ethyl)-1,4-diazepan-1-yl)-3-((4-methoxyphenyl)sulfonyl)quinoline-6-carboxylate] | 40 | –
CCOC(=O)c1ccc2ncc(S(=O)(=O)c3ccc(OC)cc3)c(N3CCC(OCCN(CC)CC)CC3)c2c1 [compound 140, ethyl 4-(4-(2-(diethylamino)ethoxy)piperidin-1-yl)-3-((4-methoxyphenyl)sulfonyl)quinoline-6-carboxylate] | 60 | –
CCOC(=O)c1ccc2ncc(S(=O)(=O)c3ccc(OC)cc3)c(N3CCCN(C)CC3)c2c1 [compound 144, ethyl 3-((4-methoxyphenyl)sulfonyl)-4-(4-methyl-1,4-diazepan-1-yl)quinoline-6-carboxylate] | 30 | –
CCc1ccc(S(=O)(=O)c2cnc3ccc(OC(F)(F)F)cc3c2N2CCC(O)(c3ccc(OC)cc3)CC2)cc1 [compound 145, 1-(3-((4-ethylphenyl)sulfonyl)-6-(trifluoromethoxy)quinolin-4-yl)-4-(4-methoxyphenyl)piperidin-4-ol] | 30 | –
CCc1ccc(S(=O)(=O)c2cnc3ccc(OC(F)(F)F)cc3c2N2CCC(O)(c3cccc(OC)c3)CC2)cc1 [compound 146, 1-(3-((4-ethylphenyl)sulfonyl)-6-(trifluoromethoxy)quinolin-4-yl)-4-(3-methoxyphenyl)piperidin-4-ol] | 0 | –
CCCCCCCCCCCCOc1ccc(S(=O)(=O)c2cnc3ccc([S+](C)[O-])cc3c2N2CCC(N3CCC(N4CCC(O)CC4)CC3)CC2)cc1F (stereo not drawn) [compound 372, 1″-(3-((4-(dodecyloxy)-3-fluorophenyl)sulfonyl)-6-(methylsulfinyl)quinolin-4-yl)-[1,4′:1′,4″- terpiperidin]-4-ol] | – | 20
CCCCCCCCCCCCCCOc1ccc(S(=O)(=O)c2cnc3ccc([S+](C)[O-])cc3c2N2CCC(N3CCC(N4CCC(O)CC4)CC3)CC2)cc1F (stereo not drawn) [compound 373, 1″-(3-((3-fluoro-4-(tetradecyloxy)phenyl)sulfonyl)-6-(methylsulfinyl)quinolin-4-yl)-[1,4′:1′,4″- terpiperidin]-4-ol] | – | 20
CCCCCCCCCCCCOc1ccc(S(=O)(=O)c2cnc3ccc([S+](C)[O-])cc3c2N2CCC(N3CCC(N4CCC(O)CC4)CC3)CC2)cc1 (stereo not drawn) [compound 374, 1″-(3-((4-(dodecyloxy)phenyl)sulfonyl)-6-(methylsulfinyl)quinolin-4-yl)-[1,4′:1′,4″-terpiperidin]-4-ol] | – | 20
CCCCCCCCCCCCCCOc1ccc(S(=O)(=O)c2cnc3ccc([S+](C)[O-])cc3c2N2CCC(N3CCC(N4CCC(O)CC4)CC3)CC2)cc1 (stereo not drawn) [compound 375, 1″-(6-(methylsulfinyl)-3-((4-(tetradecyloxy)phenyl)sulfonyl)quinolin-4-yl)-[1,4′:1′,4″-terpiperidin]-4-ol] | – | 50
CCCCCCCCCCCCCCCCOc1ccc(S(=O)(=O)c2cnc3ccc([S+](C)[O-])cc3c2N2CCC(N3CCN(CCO)CC3)CC2)cc1 (stereo not drawn) [compound 376, 2-(4-(1-(3-((4-(hexadecyloxy)phenyl)sulfonyl)-6-(methylsulfinyl)quinolin-4-yl)piperidin-4-yl)piperazin-1-yl)ethanol] | – | 10
CCCCCCCCCCCCCCCCOc1ccc(S(=O)(=O)c2cnc3ccc([S+](C)[O-])cc3c2N2CCC(N3CCC(N4CCCCC4)CC3)CC2)cc1 (stereo not drawn) [compound 377, 4-([1,4′:1′,4″-terpiperidin]-1″-yl)-3-((4-(hexadecyloxy)phenyl)sulfonyl)-6-(methylsulfinyl)quinoline] | – | 10
CCCCCCCCCCCCCCCCOc1ccc(S(=O)(=O)c2cnc3ccc([S+](C)[O-])cc3c2N2CCC(N3CCC(N4CCCC(O)C4)CC3)CC2)cc1 (stereo not drawn) [compound 378, 1″-(3-((4-(hexadecyloxy)phenyl)sulfonyl)-6-(methylsulfinyl)quinolin-4-yl)-[1,4′:1′,4″- terpiperidin]-3-ol] | – | 30
